Laboratory results from patent US8354400B2, “Benzoxazole compounds and methods of use” (Eisai R&D Co., Ltd., priority 2008, dated 2013).
Entries after “also recorded” stand apart in the source; their conditions may differ.

Legend:
[1] = system: human PBMC α-interferon response to Oligo CpG 2216; experiment: PBMC CpG 2216 assay (α-interferon ELISA); format: cell-based; details: Oligo CpG 2216, 72 hrs, read-out: PBMC CpG2216 IC50
Description: (4) PBMC CpG 2216 Assay: A subset of compounds tested as described above were also assayed for suppression of human peripheral blood mononuclear cells (PBMC) α-interferon response to stimulation with Oligo CpG 2216, a synthetic oligo phosphorothioate/phosphodiester oligonucleotide (Vollmer et al. Eur J. Immunol. 34:251-62 (2004)), with nucleotide sequence 5′-ggG GGA CGA TCG TCg ggg gG-3′ (small letters indicate phosphorothioate linkages, all others are phosphodiester) (SEQ ID NO:3). Each compound was added to […] from healthy volunteer donors before addition of stimulatory oligonucleotide. Cells were stimulated in culture for 72 hrs and the supernatant was removed for ELISA analysis of α-interferon level was performed using a VeriKine™ Human IFN-Alpha ELISA kit (Pestka Biomedical Laboratories, N.J.).

[2] = system: lymph node IL-6 release on CpG 1668 stimulation; experiment: Lymph node response: in vivo dosing, ex vivo CpG 1668 stimulation, IL-6 ELISA; set-up: species or system mice; details: for IL-6 release in the lymph nodes: mice, oral 20 mg/kg or 60 mg/kg daily for two weeks, ex vivo CpG 1668 1 μg/ml 72 hrs
Description: Mice were orally administered one of those two compounds or hydroxychloroquine (“HCQ”) at either 20 mg/kg or 60 mg/kg daily for two weeks. After in vivo dosing, lymph nodes were removed and stimulated in vitro with CpG 1668 at 1 μg/ml for 72 hrs, after which supernatants were removed and assayed by ELISA for IL-6. Levels of dosing are indicated after each compound name appearing in the Figure.

human TLR9 = target: T1, human TLR9 (Homo sapiens, UniProt Q9NR96); experiment: Primary assay: HEK/TLR9 activation (NF-kB luciferase reporter, Oligo CpG 2006 stimulation); format: cell-based; details: HEK293 transfected with human TLR9 and NF-kB luciferase; compound 30 min before Oligo CpG 2006; overnight; read-out: HEK/TLR9 IC50
T1 construct: expressed in transfected cells; host or cells: HEK293 (ATCC No. CRP-1573 [sic])
T1 sequence (Q9NR96 26-1032): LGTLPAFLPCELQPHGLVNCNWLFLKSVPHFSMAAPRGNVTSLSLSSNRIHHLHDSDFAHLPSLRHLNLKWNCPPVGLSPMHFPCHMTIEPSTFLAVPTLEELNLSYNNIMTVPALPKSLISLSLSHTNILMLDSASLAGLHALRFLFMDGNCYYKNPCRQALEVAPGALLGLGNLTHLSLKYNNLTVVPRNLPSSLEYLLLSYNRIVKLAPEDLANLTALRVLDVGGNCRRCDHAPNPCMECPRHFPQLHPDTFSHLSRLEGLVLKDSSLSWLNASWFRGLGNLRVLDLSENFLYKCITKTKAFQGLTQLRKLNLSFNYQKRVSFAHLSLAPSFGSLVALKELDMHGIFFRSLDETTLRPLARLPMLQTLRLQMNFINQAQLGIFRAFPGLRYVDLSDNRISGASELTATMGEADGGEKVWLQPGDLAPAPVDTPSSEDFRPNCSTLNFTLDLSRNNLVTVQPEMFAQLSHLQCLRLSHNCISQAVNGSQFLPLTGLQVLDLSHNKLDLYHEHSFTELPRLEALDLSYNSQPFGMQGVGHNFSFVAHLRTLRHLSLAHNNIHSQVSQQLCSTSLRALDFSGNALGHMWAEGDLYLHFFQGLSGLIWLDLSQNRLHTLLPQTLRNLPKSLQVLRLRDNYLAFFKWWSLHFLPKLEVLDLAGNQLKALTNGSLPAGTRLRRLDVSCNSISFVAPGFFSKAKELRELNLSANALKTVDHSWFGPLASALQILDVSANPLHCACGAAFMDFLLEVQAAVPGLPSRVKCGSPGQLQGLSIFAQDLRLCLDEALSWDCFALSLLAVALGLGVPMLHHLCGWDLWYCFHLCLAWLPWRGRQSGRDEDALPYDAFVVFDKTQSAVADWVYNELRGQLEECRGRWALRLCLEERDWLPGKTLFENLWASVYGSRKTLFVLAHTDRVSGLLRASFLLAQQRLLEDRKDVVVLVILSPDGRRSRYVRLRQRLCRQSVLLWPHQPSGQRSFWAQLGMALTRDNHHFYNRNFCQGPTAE
Description: A. Primary Assay. The primary assay involved transfecting human embryonic kidney epithelial (HEK) cells with TLR9. More specifically, HEK293 […] cells (ATCC No. CRP-1573, American Type Culture Collection, Manassas, Va.) were transfected with pcDNA3.1D/V5-His-TOPO® plasmid (Invitrogen, Carlsbad, Calif.) encoding human TLR9 (directly inserted as a Tag polymerase-amplified PCR product) and firefly luciferase under the control of three NF-kB binding sites contained in the E-selectin-1 promoter, which was cloned into a pGL3-Enhancer Vector (Promega Corp, Madison, Wis.). Each compound was added to cells 30 min. before stimulation with Oligo CpG 2006, a synthetic phosphorothioate oligonucleotide (Hartmann et al., J Immunol. 164:1617-24 (2000)), with nucleotide sequence 5′-TCGTCGTTTTGTCGTTTTGTCGTT-3′ (SEQ ID NO:1). The cells were incubated overnight at 37° C. The luciferase substrate Steady-Glo® (Promega) was added to the wells, and luminescence was measured to determine the extent of TLR9-driven gene activation. The luminescence data was used to calculate an IC50 for each sample. The IC50 is defined as the concentration of compound that suppresses the luminescence to 50% of that observed in the absence of compound, in other words, with full stimulation.

[3] = system: serum IL-6 after s.c. oligo CpG 1668 challenge; experiment: In vivo short term CpG stimulation assay (serum IL-6); set-up: species or system mice; details: for inhibition in vivo at 20 mg/kg: Mus musculus, po, 2 h, mice, oral in water, s.c. 30 micrograms oligo CpG 1668 within 90 minutes, serum two hours later, repeat assays separated by commas, read-out: Percent short-term IL-6 suppression; for suppression of IL-6 (Table 3): 1.5 hours after oral administration of 20 mg/kg
Description: Short Term CpG Stimulation Assay: Compounds identified as having potency in the HEK/TLR9 and splenocyte CpG 1668 assays described in Example 9, above, were tested in an in vivo short term CpG stimulation assay. Mice were orally administered compound in water, and challenged within 90 minutes by subcutaneous (s.c.) injection of 30 micrograms of oligo CpG 1668. Two hours later serum was taken and assayed for IL-6 using ELISA analysis. Results from assays repeated on different dates are set forth as multiple numbers separated by commas.

NZBWF1/J mice = experiment: NZBWF1/J spontaneous lupus model; format: in vivo; details: for anti-dsDNA: 16 weeks of treatment, 20 mg/kg or 60 mg/kg p.o.; for body weight: after 3 to 4 months of dosing; for distribution of ANA scores: after 12 weeks of treatment
Description: An in vivo study of Compound 23 and Compound 30 was conducted in an NZBWF1/J mouse model. Mice were obtained from Jackson Laboratories, divided into groups of 12, and dosed orally with compounds in water five days a week beginning at 5 months of age.

Compound: CN(C)CCCOc1ccc(-c2nc3ccc(OCCCN(C)C)cc3o2)cc1 [Compound 2]
- IC50 [1]: 500 nM
- IL-6 release in the lymph nodes [2]: suppressed IL-6 release
- IC50 (human TLR9): 15.4 nM

Compound: CN1CCN(c2ccc(CNCCCOc3ccc(-c4nc5ccc(OCCCNCc6ccc(N7CCN(C)CC7)cc6)cc5o4)cc3)cc2)CC1 [Compound 11]
- IC50 [1]: 600 nM
- IC50 (human TLR9): 4.8 nM

Compound: CCN(CC)CCNCCCOc1ccc(-c2nc3ccc(OCCCNCCN(CC)CC)cc3o2)cc1 [Compound 12]
- IC50 [1]: 500 nM
- IC50 (human TLR9): 5.8 nM

Compound: c1cc(CN2CCOCC2)ccc1CNCCCOc1ccc(-c2nc3ccc(OCCCNCc4ccc(CN5CCOCC5)cc4)cc3o2)cc1 [Compound 13]
- IC50 (human TLR9): 7.1 nM
- inhibition in vivo at 20 mg/kg [3]: 40%

Compound: CN1CCCN(CCCOc2ccc(-c3nc4ccc(OCCCN5CCCN(C)CC5)cc4o3)cc2)CC1 [Compound 14]
- IC50 (human TLR9): 5.6 nM
- suppression of IL-6 (Table 3) [3]: No suppression
- inhibition in vivo at 20 mg/kg [3]: 0%

Compound: CN(C)[C@@H]1CCN(CCCOc2ccc(-c3nc4ccc(OCCCN5CC[C@@H](N(C)C)C5)cc4o3)cc2)C1 [Compound 16]
- IC50 [1]: 400 nM
- IC50 (human TLR9): 5.5 nM
- inhibition in vivo at 20 mg/kg [3]: 50%

Compound: c1cc(-c2nc3ccc(OCCCN4CCC(N5CCCC5)CC4)cc3o2)ccc1OCCCN1CCC(N2CCCC2)CC1 [Compound 20]
- IC50 [1]: 700 nM
- IC50 (human TLR9): 12.5 nM
- suppression of IL-6 (Table 3) [3]: No suppression
- inhibition in vivo at 20 mg/kg [3]: 0%

Compound: CN(C)CCN(C)CCCOc1ccc(-c2nc3ccc(OCCCN(C)CCN(C)C)cc3o2)cc1 [Compound 22]
- IC50 (human TLR9): 8.7 nM
- inhibition in vivo at 20 mg/kg [3]: 36%

Compound: c1cc(-c2nc3ccc(OCCCN4CCCC4)cc3o2)ccc1OCCCN1CCCC1 [Compound 23]
- proteinuria (NZBWF1/J mice; NZB/W mice): no effect
- histological examination of muscle, brain, kidney and spleen (hematoxylin and eosin) (NZBWF1/J mice; NZBWF1/J mice): no obvious pathology
- anti-dsDNA (NZBWF1/J mice; NZBWF1/J mice): Neither of the compounds tested in this study, Compound 23 or Compound 30, showed an effect on anti-dsDNA; also recorded: no effect
- body weight (NZBWF1/J mice; NZBWF1/J mice): dose-related weight loss
- distribution of ANA scores (NZBWF1/J mice; NZBWF1/J mice): no effect
- IC50 [1]: 600 nM
- IL-6 release in the lymph nodes, low dose ([2]; 20 mg/kg oral daily for two weeks): particularly high levels of suppression
- IL-6 release in the lymph nodes [2]: suppressed IL-6 release
- IC50 (human TLR9): 11.1 nM
- inhibition in vivo at 20 mg/kg [3]: 91%

Compound: CN(C)CCCN(C)CCCOc1ccc(-c2nc3ccc(OCCCN(C)CCCN(C)C)cc3o2)cc1 [Compound 27]
- IC50 (human TLR9): 3.4 nM
- inhibition in vivo at 20 mg/kg [3]: 30%

Compound: c1cc(-c2nc3ccc(OCCCN4CCCCC4)cc3o2)ccc1OCCCN1CCCCC1 [Compound 30]
- histological examination of muscle, brain, kidney and spleen (hematoxylin and eosin) (NZBWF1/J mice; NZBWF1/J mice): no obvious pathology
- anti-dsDNA at high dose (NZBWF1/J mice; NZBWF1/J mice, 60 mg/kg p.o.): some suppression of anti-dsDNA at the high dose of 60 mg/kg, but, this was not statistically significant
- anti-dsDNA (NZBWF1/J mice; NZBWF1/J mice): Neither of the compounds tested in this study, Compound 23 or Compound 30, showed an effect on anti-dsDNA
- body weight (NZBWF1/J mice; NZBWF1/J mice): dose-related weight loss
- distribution of ANA scores (NZBWF1/J mice; NZBWF1/J mice): no effect
- IC50 [1]: 500 nM
- IC50 (human TLR9): 12.1 nM
- inhibition in vivo at 20 mg/kg [3]: 93%

Compound: CCN(CC)CCN(C)CCCOc1ccc(-c2nc3ccc(OCCCN(C)CCN(CC)CC)cc3o2)cc1 [Compound 31]
- IC50 [1]: 200 nM
- IC50 (human TLR9): 7.2 nM
